# Experimental data: US10428055B2, “Substituted piperidines having GPR119 agonistic activity” (DONG-A ST CO., LTD., priority 2014, dated 2019)
# Tests used:
# Human GPR119 = molecular target: T1, Human GPR119 (Homo sapiens, UniProt Q8TDV5); test: Human GPR119 activation assay (cAMP, HTRF); format: cell-based; details: HEK293 cells transiently expressing human GPR119, relative to maximum effect of OEA; for Emax at 0.001 µM / Emax at 0.01 µM: 1 h, read-out: hGPR119 activation ability (cAMP assay) Relative Response % vs OEA
# T1 construct: host or cells: HEK293 (ATCC)
# T1 sequence (Q8TDV5 1-335): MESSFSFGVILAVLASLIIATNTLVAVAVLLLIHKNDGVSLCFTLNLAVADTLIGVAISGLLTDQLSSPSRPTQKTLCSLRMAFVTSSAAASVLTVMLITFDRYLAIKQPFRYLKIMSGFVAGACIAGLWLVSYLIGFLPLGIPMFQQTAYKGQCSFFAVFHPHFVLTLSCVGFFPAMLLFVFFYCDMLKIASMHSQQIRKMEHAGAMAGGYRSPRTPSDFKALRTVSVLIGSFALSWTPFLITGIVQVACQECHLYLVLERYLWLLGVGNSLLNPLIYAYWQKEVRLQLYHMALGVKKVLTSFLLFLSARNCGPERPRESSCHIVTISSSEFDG
# From the text: <Experimental Example 1>Human GPR119 activation assay
# Human GPR119 was temporarily expressed on cells, thereby quantifying the amount of cyclic adenosine 3′,5′-monophosphate (cAMP) increased upon activating GPR119 by the compound of the present invention, using the product from Cysbio, by a method of HTRF (homogeneous time resolved fluorescence), and such quantification was used to refer to efficacy on GPR119 activation.
# Human GPR119 expression vector (Origene) was overexpressed in […] renal epithelial cells (HEK293) (ATCC), and the cells were stabilized for 48 hours. With a solution of 11.1 mM glucose, 0.1% bovine serum albumin, and 0.5 mM IBMX (3-isobutyl-1-methylxanthine) which is a phosphodiesterase inhibitor being added to a KRBH (Krebs-Ringer Bicarbonate HEPES; Hou ZQ. et al., Mol Cell Endocrinol, 2008(291):71-78) buffer, the cells were pre-treated for 10 minutes. Thereafter, the cells were treated with the same solution containing a drug for 60 minutes, then the supernatant was removed, and the increase in cAMP in cells was quantified using a Cysbio cAMP HiRange kit.
# As to the maximum efficacy of compounds tested, multiple concentration assessment for the compounds of the present invention was carried out, thereby assessing the relative activation level (%) to the maximum effect of oleoylethanolamide (OEA), an endogenous ligand of GPR119.
# C57BL/6 mouse = test: Assessment of glucose tolerance improvement effect in mouse; format: in vivo; details: 2 h; 10 mg/kg oral, 30 min before oral glucose 2 g/kg; male C57BL/6 mouse; blood glucose AUC
# Protocol: <Experimental Example 2>Assessment of glucose tolerance improvement effect in mouse
# As one of anti-diabetic effect indicators, the glucose tolerance improvement effect of the above compounds was evaluated in 7-week male laboratory mouse (C57BL/6 mouse), as the effect of improving postprandial glycemic control ability.
# The laboratory mouse was fasted from the day before the experiment for 16-17 hours. The compound of the present invention was orally administered 30 minutes before administrating glucose, and after 30 minutes, a glucose solution (2 g/kg/10 ml) was orally administered. A drug was prepared by suspending in a 10% Gelucire solution. At the times immediately before drug administration, immediately before glucose solution administration, 15 minutes, 30 minutes, 60 minutes, 90 minutes, and 120 minutes after glucose administration, the whole blood glucose levels was measured from tail vein using a blood glucose meter (AccuChek Active, Roche Diagnostics), and the area under the curve of a temporal blood glucose curve was calculated. From the calculated area under the blood glucose curve, the area under the blood glucose curve of a negative control group to which no glucose solution was administered was subtracted, and inhibitory activity against blood glucose increase of a control group to which only the 10% Gelucire solution and glucose solution were administered was calculated as a percentage, thereby evaluating the glucose tolerance improvement efficacy of a drug.
# The results are shown in Table 3, in which the glucose tolerance improvement effect represented at a dose of 10 mg/kg was represented by classifying into three groups, under 30%, more than 30% under 40%, and more than 40%. A significant glucose tolerance improvement effect was identified in 22 compounds on which the experiment was carried out, and among those compounds, 16 compounds represented an excellent in vivo activity of 30% inhibitory dose of 10 mg/kg or less. In the following Table 3, A represents an inhibitory activity more than 40%, B represents an inhibitory activity more than 30% under 40% and C represents an inhibitory activity under 30%.
Compound,Emax at 0.001 µM (Human GPR119; 1 nM),Emax at 0.01 µM (Human GPR119; 10 nM),hGPR119 activation ability (cAMP assay) Relative Response % vs OEA (Human GPR119; 1 nM),hGPR119 activation ability (cAMP assay) Relative Response % vs OEA (Human GPR119; 10 nM),inhibition in vivo at 10 mg/kg (C57BL/6 mouse)
"CCc1cnc(N2CCC(CCCOc3cc(F)c(C4=NC[C@@H](C)O4)c(F)c3)CC2)nc1 [Example 5, (R)-2-(4-(3-(1-(5-ethylpyrimidin-2-yl)piperidin-4-yl)propoxy)-2,6-difluorophenyl)-5-methyl-4,5-dihydrooxazole]",44.6%,150%,–,–,> 40%
"CCc1cnc(N2CCC(CCCOc3cc(F)c(C4=NC[C@H](CO)O4)c(F)c3)CC2)nc1 [Example 7, (R)-(2-(4-(3-(1-(5-ethylpyrimidin-2-yl)piperidin-4-yl)propoxy)-2,6-difluorophenyl)-4,5-dihydrooxazol-5-yl)methanol]",51.3%,170%,–,–,< 30%
"CC(C)c1noc(N2CCC(CCCOc3cc(F)c(C4=NC[C@H](C)O4)c(F)c3)CC2)n1 [Example 11, (S)-5-(4-(3-(3,5-difluoro-4-(5-methyl-4,5-dihydrooxazol-2-yl)phenoxy)propyl)piperidin-1-yl)-3-isopropyl-1,2,4-oxadiazole]",184%,266%,–,–,< 30%
"CC(C)c1noc(N2CCC(CCCOc3cc(F)c(C4=NCC(C)(C)O4)c(F)c3)CC2)n1 [Example 12, 5-(4-(3-(4-(5,5-dimethyl-4,5-dihydrooxazol-2-yl)-3,5-difluorophenoxy)propyl)piperidin-1-yl)-3-isopropyl-1,2,4-oxadiazole]",116%,232%,–,–,> 40%
"CC(C)c1nc(-c2c(F)cc(OCCCC3CCN(c4ncc(C(F)(F)F)cn4)CC3)cc2F)no1 [Example 25, 3-(2,6-difluoro-4-(3-(1-(5-(trifluoromethyl)pyrimidin-2-yl)piperidin-4-yl)propoxy)phenyl)-5-isopropyl-1,2,4-oxadiazole]",159%,274%,–,–,< 30%
"CC(C)c1nc(-c2c(F)cc(OCCCC3CCN(c4ncc(Cl)cn4)CC3)cc2F)no1 [Example 28, 3-(4-(3-(1-(5-chloropyrimidin-2-yl)piperidin-4-yl)propoxy)-2,6-difluorophenyl)-5-isopropyl-1,2,4-oxadiazole]",23.8%,115%,–,–,< 30%
"CC(C)c1nc(-c2c(F)cc(OCCCC3CCN(c4ccc(C(F)(F)F)cn4)CC3)cc2F)no1 [Example 38, 3-(2,6-difluoro-4-(3-(1-(5-(trifluoromethyl)pyridin-2-yl)piperidin-4-yl)propoxy)phenyl)-5-isopropyl-1,2,4-oxadiazole]",102%,120%,–,–,< 30%
"CC(C)c1noc(N2CCC(CCCOc3cc(F)c(-c4noc(C(C)C)n4)c(F)c3)CC2)n1 [Example 40, 3-(2,6-difluoro-4-(3-(1-(3-isopropyl-1,2,4-oxadiazol-5-yl)piperidin-4-yl)propoxy)phenyl)-5-isopropyl-1,2,4-oxadiazole]",63.7%,206%,–,–,30 to 40%
"CCc1cnc(N2CCC(CCCOc3cc(F)c(-c4nnc(C)o4)c(F)c3)CC2)nc1 [Example 42, 2-(4-(3-(1-(5-ethylpyrimidin-2-yl)piperidin-4-yl)propoxy)-2,6-difluorophenyl)-5-methyl-1,3,4-oxadiazole]",127%,150%,–,–,> 40%
"CCc1cnc(N2CCC(CCCOc3cc(F)c(-c4nnc(CC)o4)c(F)c3)CC2)nc1 [Example 43, 2-ethyl-5-(4-(3-(1-(5-ethylpyrimidin-2-yl)piperidin-4-yl)propoxy)-2,6-difluorophenyl)-1,3,4-oxadiazole]",260%,538%,–,–,> 40%
"Cc1nnc(-c2c(F)cc(OCCCC3CCN(c4ncc(C(F)(F)F)cn4)CC3)cc2F)o1 [Example 46, 2-(2,6-difluoro-4-(3-(1-(5-(trifluoromethyl)pyrimidin-2-yl)piperidin-4-yl)propoxy)phenyl)-5-methyl-1,3,4-oxadiazole]",209%,239%,–,–,> 40%
"CCc1nnc(-c2c(F)cc(OCCCC3CCN(c4ncc(C(F)(F)F)cn4)CC3)cc2F)o1 [Example 47, 2-(2,6-difluoro-4-(3-(1-(5-(trifluoromethyl)pyrimidin-2-yl)piperidin-4-yl)propoxy)phenyl)-5-ethyl-1,3,4-oxadiazole]",66%,218%,–,–,> 40%
"CC(C)c1nnc(-c2c(F)cc(OCCCC3CCN(c4cnc(Cl)cn4)CC3)cc2F)o1 [Example 51, 2-(4-(3-(1-(5-chloropyrazin-2-yl)piperidin-4-yl)propoxy)-2,6-difluorophenyl)-5-isopropyl-1,3,4-oxadiazole]",90.7%,180%,–,–,> 40%

# Further lines, with some results ahead:
Emax at 0.001 µM (Human GPR119; 1 nM),Emax at 0.01 µM (Human GPR119; 10 nM),hGPR119 activation ability (cAMP assay) Relative Response % vs OEA (Human GPR119; 1 nM),hGPR119 activation ability (cAMP assay) Relative Response % vs OEA (Human GPR119; 10 nM),Compound,inhibition in vivo at 10 mg/kg (C57BL/6 mouse)
49.4%,126%,–,–,"CCc1cnc(N2CCC(CCCOc3cc(F)c(-c4noc(C)n4)c(F)c3)CC2)nc1 [Example 13, 3-(4-(3-(1-(5-ethylpyrimidin-2-yl)piperidin-4-yl)propoxy)-2,6-difluorophenyl)-5-methyl-1,2,4-oxadiazole]",30 to 40%
–,–,87.7%,183.8%,"CCc1cnc(N2CCC(CCCOc3cc(F)c(-c4noc(C(C)C)n4)c(F)c3)CC2)nc1 [Example 15, 3-(4-(3-(1-(5-ethylpyrimidin-2-yl)piperidin-4-yl)propoxy)-2,6-difluorophenyl)-5-isopropyl-1,2,4-oxadiazole]",> 40%
46.5%,313%,–,–,"CCc1cnc(N2CCC(CCCOc3cc(F)c(-c4noc([C@@H](O)CC)n4)c(F)c3)CC2)nc1 [Example 19, (S)-1-(3-(4-(3-(1-(5-ethylpyrimidin-2-yl)piperidin-4-yl)propoxy)-2,6-difluorophenyl)-1,2,4-oxadiazol-5-yl) propan-1-ol]",30 to 40%
54.9%,178%,–,–,"CCc1cnc(N2CCC(CCCOc3cc(F)c(-c4noc(C(C)(C)CO)n4)c(F)c3)CC2)nc1 [Example 22, 2-(3-(4-(3-(1-(5-ethylpyrimidin-2-yl)piperidin-4-yl)propoxy)-2,6-difluorophenyl)-1,2,4-oxadiazol-5-yl)-2-methylpropan-1-ol]",30 to 40%
78.3%,141%,–,–,"CCCc1cnc(N2CCC(CCCOc3cc(F)c(-c4noc(C(C)C)n4)c(F)c3)CC2)nc1 [Example 23, 3-(2,6-difluoro-4-(3-(1-(5-propylpyrimidin-2-yl)piperidin-4-yl)propoxy)phenyl)-5-isopropyl-1,2,4-oxadiazole]",> 40%
132%,309%,–,–,"CCCCCc1cnc(N2CCC(CCCOc3cc(F)c(-c4noc(C(C)C)n4)c(F)c3)CC2)nc1 [Example 24, 3-(2,6-difluoro-4-(3-(1-(5-pentylpyrimidin-2-yl)piperidin-4-yl)propoxy)phenyl)-5-isopropyl-1,2,4-oxadiazole]",< 30%
